Patent US20120046461A1, “STEROIDAL ANTI-HORMONE HYBRIDS” (Northeastern University, priority 2009, published 2012)
Where “and” joins values, the source holds several entries; their conditions need not be identical. Equal values may be shown once.

How the values were obtained:
[1] = tested on: alkaline phosphatase in Ishikawa cells; assay: Inhibition of E2-stimulated alkaline phosphatase in Ishikawa cells; assay type: cell-based, human; details: Ki determined in the presence of I nm E2
Experimental: (§1) The induction of AlkP in human endometrial adenocarcinoma cells (Ishikawa) grown in 96-well microtiter plates was performed as described. The cells were grown in Phenol red-free medium with estrogen-depleted (charcoal stripped) bovine serum in the presence or absence of varying amounts of the steroids across a dose range of at least 6 orders of magnitude. After 3 days, the cells were washed, frozen, thawed, and then incubated with 5 mM p-nitrophenyl phosphate, a chromogenic substrate for the AlkP enzyme, at pH 9.8. To ensure linear enzymatic analysis, the plates were monitored kinetically for the production of p-nitrophenol at 405 nm.
(§2) Each compound was analyzed in at least 3 separate experiments performed in duplicate. The Ki and RSA (RSA=ratio of 1/EC50 of the steroid analog to that of E2×100) were determined using the curve fitting program Prism. The results are shown below in FIGS. 1A-1C, 2, 3, and 4.

[2] = tested on: alkaline phosphatase in Ishikawa cells; assay: Stimulation of alkaline phosphatase in Ishikawa cells (estrogenic potency); assay type: cell-based, human; details: for Ishikawa - RSA: relative stimulatory activity in comparison to E2 = 100%
Experimental: The methodology for determining estrogenic potency, estrogen receptor binding, and stimulation of an estrogen responsive gene in alkaline phosphatase in the Ishikawa cell was performed as described. (Stabile, et al. (2005) Cancer Res. 65:1459-1470; Perez-Soler (2007) Clin. Can. Res. 13(Suppl. 15):[…]; Nicholson, et al. (2000) British J. Cancer 82:501-513; Schiff, et al. (2004) Clin. Can. Res. 10 (supp.1):331s-336s).
as §1, §2

MCF-7 cells = assay: Anti-proliferative assay (MTS/PMS), MCF-7; assay type: cell-based; details: 72 h
Experimental: (§3) MCF-7 and SKBr3 cells were maintained in a 1:1 mixture of Advanced DMEM/F12 (Gibco) supplemented with nonessential amino acids, L-glutamine (2 mM), streptomycin ([…]), penicillin (100 units/mL), and 10% FBS. Cells were grown to confluence in a humidified atmosphere (37° C., 5% CO2), seeded (2000/well, 100 μL) in 96-well plates, and allowed to attach overnight. Compound or GDA at varying concentrations in DMSO (1% DMSO final concentration) was added, and cells were returned to the incubator for 72 h. At 72 h, the number of viable cells was determined using an MTS/PMS cell proliferation kit (Promega) per the manufacturer's instructions. Cells incubated in 1% DMSO were used as 100% proliferation, and values were adjusted accordingly. IC50 values were calculated from separate experiments performed in triplicate using GraphPad Prism.

[3] = tested on: MCF-7 (ER-positive) breast cancer cell line; assay: Cellular proliferation of MCF-7 (ER-positive) breast cancer cells, mitomycin series; assay type: cell-based; details: MCF-7 cells, FIG. 2, 4, 5
Excerpt: Another series of biological assays (Litzenburger, et al., Clin. Can. Res. (2009) 15:226 and Georghis, et al., Can. Chemothera. Pharmacol. (1992) 29:290.) are run to evaluate the effect of the mitomycin moiety on cellular proliferation of MCF-7 (ER-positive) and MDA-231 (ER-negative) breast cancer cell lines.

[4] = molecular target: T1, LBD of human ERα (M250-V595) (Homo sapiens, UniProt P03372); assay: Competitive binding of [3H]E2 to ERα-LBD (RBA); details: RBA against E2
T1 construct: the LBD of human ERα (M250-V595) is expressed; made in house; host or cells: Escherichia coli (lysates)
T1 sequence (P03372 250-595): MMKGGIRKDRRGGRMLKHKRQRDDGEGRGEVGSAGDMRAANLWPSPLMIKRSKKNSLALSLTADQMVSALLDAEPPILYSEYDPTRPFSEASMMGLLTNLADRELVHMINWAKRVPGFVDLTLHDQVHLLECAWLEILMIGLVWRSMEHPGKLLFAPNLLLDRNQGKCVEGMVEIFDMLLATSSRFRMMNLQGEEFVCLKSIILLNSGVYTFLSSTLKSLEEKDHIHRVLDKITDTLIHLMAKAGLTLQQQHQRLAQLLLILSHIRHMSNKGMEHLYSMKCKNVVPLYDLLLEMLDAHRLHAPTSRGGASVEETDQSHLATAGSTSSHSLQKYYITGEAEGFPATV
Experimental: (§4) A. Competitive Binding to Rat Cytosolic ER, Human LBD-ERα and Human LBD-ERβ
Biological evaluation used competitive binding assays with estradiol on the ERα-LBD. […] After incubation, the media was aspirated, the plates were washed 3 times, and the receptor-bound radioactivity absorbed to the plates was extracted with methanol and counted.
(§5) The ability of the described ERα ligands to bind to the ER was determined through their RBA against E2, in the competitive binding assay described above.

Human LBD-ERβ = molecular target: T2, Human LBD-ERβ (Homo sapiens, UniProt Q92731); assay: Competitive binding to ERβ (RBA); details: for RBA ERβ: RBA against E2
T2 construct: Human LBD-ERα and Human LBD-ERβ
T2 sequence (Q92731 264-498 limits assumed): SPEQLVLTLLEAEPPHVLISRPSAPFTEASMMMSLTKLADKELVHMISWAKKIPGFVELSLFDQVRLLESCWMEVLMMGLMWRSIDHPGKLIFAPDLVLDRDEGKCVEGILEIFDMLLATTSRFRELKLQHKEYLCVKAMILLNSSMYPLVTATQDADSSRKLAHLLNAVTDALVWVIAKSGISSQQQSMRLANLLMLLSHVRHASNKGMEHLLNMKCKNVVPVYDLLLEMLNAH
Experimental: as §4
Biological evaluation used competitive binding assays with estradiol on the ERα-LBD. Binding affinities of the estradiol derivatives relative to E, were performed in incubations with the LBD of ERα. in lysates of Escherichia coli in which the LBD of human ERα (M250-V595) is expressed as described in Antonello, et al. (J. Med. Chem. (2006) 49:6642-6645), Morphy, et al. (J. Med. Chem. (2006), 49:4961-4970); Meunier (Accounts Chem. Res. (2007), and Ojima (Accounts Chem. Res. (2007). The assay was perfoiiued overnight in phosphate buffered saline +1 mM EDTA at RT. The competition for binding of [^3H]E2 to the LBD of the E2-derivatives in comparison to E2, relative binding affinity (RBA) was determined over a range of concentrations from 10^−12 to 10^−6M. After incubation, the media was aspirated, the plates were washed 3 times, and the receptor-bound radioactivity absorbed to the plates was extracted with methanol and counted.
as §5

SKBr3 cells = assay: Anti-proliferative assay (MTS/PMS), SKBr3; assay type: cell-based; details: 72 h
Experimental: as §3

## N-propargyl-N′-methyl-mitomycin C [EH-N9-006]
[1]
  Ki: 0.04 ± 0.004 µM
[2]
  Ishikawa - RSA: 0%

## Geldanamycin aminopentanamidocarbonylphenyl-methyl difluorocyclooctenyltriazolo-ethoxy Anti-Estrogen [Compound 3-17]
MCF-7 cells
  EC50: 17 µM

## C[C@]12C[C@H](c3ccc(OCCOCCOCCN=[N+]=[N-])cc3)[C@@H]3c4ccc(O)cc4CC[C@H]3[C@@H]1CC[C@@H]2O [EH-N7-092, 11β-[4-(ω-azido-triethyleneglycoloxy)]-phenyl-estradiol]
[2]
  Ishikawa - RSA: 0%

## CO[C@@]12[C@H](COC(N)=O)C3=C(C(=O)C(C)=C(N)C3=O)N1C[C@@H]1N[C@@H]12 [mitomycin C]
[3]
  anti-proliferative response: more potent in the MCF-7 vs. the MDA-231 cell lines

## Geldanamycin-aminoheptaethylene glycolyl-triazolo-methylaminoethoxy Anti-Estrogen [Compound 3-15]
MCF-7 cells
  EC50: 0.102 ± 0.005 µM

## C[C@]12C[C@H](c3ccc(OCCN=[N+]=[N-])cc3)[C@@H]3c4ccc(O)cc4CC[C@H]3[C@@H]1CC[C@@H]2O [Compound 2-13, (8S,9R,11S,13S,14S,17S)-11-(4-(2-azidoethoxy)phenyl)-7,8,9,11,12,13,14,15,16,17-decahydro-13-methyl-6H-cyclopenta[a]phenanthrene-3,17-diol]
[4]
  RBA ERα: 39.3±9.0 and 39.3
[4]; listed as drawing 40
  RBA ERα: 39.3 ± 9.0
Human LBD-ERβ; ERα vs ERβ
  ER-subtype selectivity: does not differentiate between ERα and ERβ
Human LBD-ERβ
  RBA ERβ: 33.7±1.77
Human LBD-ERβ; listed as drawing 40
  RBA ERβ: 33.7 ± 1.77
Human LBD-ERβ; ratio of RBA ERβ to RBA ERα
  β/α: 0.86

## Estradiol [Compound E2, reference compound]
[2]; Ishikawa cells, read-out: EC50 of E2, alkaline phosphatase induction
  EC50: ~0.0002 µM

## Geldanamycin-aminomethyl-triazolo-ethoxy Anti-Estrogen [Compound 3-13]
MCF-7 cells
  EC50: 1.2 ± 0.09 µM
SKBr3 cells
  EC50: 0.71 ± 0.16 µM
